Type in all cases: cell-based, human
Test [1] has as its system whole blood of healthy control donors. In words: Reactive oxygen species (DCF fluorescence, H2O2) in whole blood of healthy controls. Conditions: healthy control donors; treated with H2O2; dose-responsive. The method, then:
(§1) Whole blood samples were appropriately diluted in Ca^2+- and Mg^2+-free Dulbecco's phosphate buffered saline (DPBS, Life Technologies) and the concentration of erythrocytes (RBC/ml) was measured on a Cellometer K2 Fluorescent Viability Cell Counter according to the manufacturer's RBC/AOPI protocol (Nexcelom Biosciences).
(§2) Cells were then diluted to 1*10^6 RBC/ml into either prewarmed 37° C. […] 2′-7′-dichlorofluorescin diacetate (DCF, Millipore Sigma), 20 mM in dimethyl sulfoxide (DMSO, Fisher) were added to a working concentration of 100 μM. Cells were incubated with dye for 15 minutes at 37° C., 5% CO2 in a tissue culture incubator, washed once, and resuspended in the 0.9 volumes of the same prewarmed 37° C. buffer with 5 minute spins at 500× g, accel/decal=5 in a swing arm centrifuge (Beckman Coulter). […] Where possible due to solubility constrains, pH-7.4-adjusted stock solutions of amino acids were used. Wells were mixed by pipetting and plates incubated at 37° C., 5% CO2 in a tissue culture incubator for 30 minutes. Optionally, 40 mM H2O2(Millipore Sigma) freshly prepared in the same buffer was added to bring the concentration to 2 mM, wells mixed by pipetting, and plates were incubated an additional 30, 60, 120, or 240 minutes before fluorescence measurement of ROS signal on a Synergy H4 (BioTek) microplate reader with excitation=488 nm and emission=530 nm, and gain either set to autogain, 75, or 100.

In test [2] the test system is sickle cell disease patient blood. As to the kind of experiment: Reactive oxygen species (DCF fluorescence, H2O2) in sickle cell disease patient blood. The note with it: treated with H2O2 and untreated in DPBS. The method, then: as §1, §2
For a further test, the system named is ICAM-1. In words: ICAM-1 cell integrated intensity in HLMVEC treated with TNFa. Conditions: 0.5 ng/mL TNFα; amino acids at 20×; 24 hours; in words. The source says: (§3) A VEC model was employed to assess the ability of amino acids to influence aspects of vascular dysfunction in SCD. TNFa treatment of healthy donor HLMVEC mimics the SCD disease state and induces expression of adhesion markers ICAM-1 and VCAM-1, and secretion of proinflammatory cytokine IL-6. It is established that levels of ICAM-1, VCAM-1, and IL-6 can contribute to SCD pathology and correlate with the incidence and severity of complications in SCD patients. The VEC model sought to test the ability of amino acids to reduce the TNFa-induced disease phenotype by lowering expression of adhesion markers (ICAM-1 and VCAM-1) and inflammatory cytokines (IL-6) while promoting VEC health and viability.
Primary Human Lung Microvascular Endothelial Cells (HLMVEC; Lonza) were seeded at 6,000 cells per well in Endothelial Cell Growth Basal Medium-2 (Lonza) supplemented with Fetal Bovine Serum (FBS; Lonza), human EGF (Lonza), human VEGF (Lonza), R3-Insulin-like Growth Factor-1 (Lonza), ascorbic acid (Lonza), hydrocortisone (Lonza), human FGF-beta (Lonza), and gentamicin/amphotericin-b (Lonza) in a 96-well plate (Thermo Fisher). […]
(§4) Antibody binding was detected by fluorescence microscopy using a high content imager (Molecular Devices). Images were analyzed using MetaXpress 6 software to determine the integrated intensity per cell for each wavelength corresponding to ICAM-1 or VCAM-1.

The test system of another test is VCAM-1. As to the kind of experiment: VCAM-1 cell integrated intensity in HLMVEC treated with TNFa. Conditions: 0.5 ng/mL TNFα; amino acids at 20×; 24 hours; in words.
Source text: as §3
Primary Human Lung Microvascular Endothelial Cells (HLMVEC; Lonza) were seeded at 6,000 cells per well in Endothelial Cell Growth Basal Medium-2 (Lonza) supplemented with Fetal Bovine Serum (FBS; Lonza), human EGF (Lonza), human VEGF (Lonza), R3-Insulin-like Growth Factor-1 (Lonza), ascorbic acid (Lonza), hydrocortisone (Lonza), human FGF-beta (Lonza), and gentamicin/amphotericin-b (Lonza) in a 96-well plate (Thermo Fisher). The cells were incubated for 45 minutes at room temperature, then incubated overnight at 37° C./5% CO2.
Following overnight incubation, cell were washed once with 150 μL of Dulbecco's phosphate buffered saline (DPBS; Gibco), and then treated with Endothelial Basal Medium MCB-131 (amino acid, glucose, sodium pyruvate, and phenol red free; US Biologicals) containing a defined custom amino acid concentration based on physiological concentrations in blood of patients with SCD (thus recapitulating observed metabolic imbalances such as the depletion of certain essential amino acids including arginine and aspartate and enrichment of certain non-essential amino acids including glutamate and asparagine), dialyzed FBS (Hyclone), human EGF (Lonza), human VEGF (Lonza), R3-Insulin-like Growth Factor-1 (Lonza), ascorbic acid (Lonza), hydrocortisone (Lonza), human FGF-beta (Lonza), and gentamicin/amphotericin-b (Lonza), glucose, 10 mM HEPES, sodium pyruvate, and sodium bicarbonate supplemented with one of the following: • a. PBS (vehicle control), • b. 0.5 ng/mL Tumor Necrosis Factor alpha (TNFα) and PBS, or; • c. 0.5 ng/mL TNFα and amino acid treatments at 20× mean physiological concentrations in plasma based on values published in the Human Metabolome Database (HMDB) in PBS.
After 24 hours of treatment, cells were washed once with 150 μL of DPBS (Gibco), then fixed with 4% paraformaldehyde. […]
as §4

`CC(=O)N[C@@H](CS)C(=O)O` [N-Acetyl Cysteine, N-acetylcysteine]: the “ROS measured in whole blood” value in test [1] and in test [2] was “reduced ROS” in each case. Besides, the “TNF-α induced ICAM-1 expression levels in HLMVEC” value in the test with ICAM-1 is given as “reduced levels of ICAM-1 expression to a lesser extent”. Moreover, the “VCAM-1 expression in HLMVEC” value in the test with VCAM-1 is on record as “greatly reduced”.

The record behind these values is patent US11058654B2, “Compositions and methods for the treatment of hemoglobinopathies and thalassemias” (AXCELLA HEALTH INC., priority 2018, dated 2021).
